Reference: US9121847B2, “Three-dimensional microfluidic platforms and methods of use thereof” (Massachussetts Institute of Technology, priority 2008, dated 2015)
Where two headings read alike, the source gives them in different places.

Assays:
[1] = test system: human dermal microvascular endothelial cells (HMVEC); details: for relative normalized length and area change of cell migration: collagen gel polymerized at pH 7.4
Description: Endothelial cell culture. The cell suspension media was prepared with 2×10^6 cells/mL and filled into the cell culturing channel. After filling, the device was kept in the incubator for 30 minutes for cells to settle down and attach on the substrate before the medium was replaced. The cell attachments duration ranges from 30 minutes to several hours depending on the cell types. Human dermal microvascular endothelial cells (HMVEC) were commercially obtained (Lonza, N.J.) and expanded with endothelial growth media (EGM-2MV; Lonza, N.J.) on regular culture flasks pre-coated with collagen I (BD Biosciences, MA) for no more than 9 passages. Recombinant human vascular endothelial growth factor (VEGF; R&D Systems, MN) was mixed with cell culturing media with working concentration of 20 ng/mL and then was filled into the condition channel to generate gradient.
Measuring and quantification of cell migration. The device was kept in incubator containing 5% CO2 at 37° C. and cell migration was monitored by phase contrast microscopy (Nikon Instruments, NY) daily. The length and area of migrated cell outlines were measured by ImageJ. Immunofluorescence staining was performed to visualize the final cell migration result. Actin filaments and nuclei were stained with Rhodamine-Phalloidin (Sigma-Aldrich, Switzerland) and DAPI (Sigma-Aldrich, Switzerland), respectively.
Quantified chemotaxis experiments with endothelial cells. […] Vascular Endothelial Growth Factor-A (VEGF), a known stimulant of endothelial cell migration^23,24 was applied to the condition channel, generating a VEGF gradient in gel scaffold between the cell channel and the condition channel. The control channel was filled with normal cell culture medium without VEGF as a control. […] Length and area changes of migrating cells into collagen scaffolds of different stiffness (pH 7.4 and pH 11) were observed and quantified over several days.
Cells were fixed after 6 days of culture with 5 days of VEGF gradient application, and stained by Rhodamine-Phalloidin and DAPI. White dotted lines indicate the outlines of gel scaffold and small rectangles in scaffold indicate the PDMS posts of 150 μm×150 μm. “0.2%” indicates a collagen concentration of 2.0 mg/mL. […] FIG. 20D is a graph of normalized relative length of migrated cells in the collagen gel scaffold polymerized at pH 7.4 with concentration of 2.0 mg/mL. ‘No VEGF’ serves as the negative control without VEGF gradient. VEGF was applied daily for various durations. ‘VEGF at day 1’ means that VEGF was first applied 1 day after cell seeding. VEGF at day 2 or 3 means VEGF was first applied 2 or 3 days after cell seeding. The relative length is calculated as the difference from the control side. FIG. 20E is a graph of normalized relative area of migrated cells in the collagen gel scaffold polymerized at pH 7.4 with concentration of 2.0 mg/mL. FIGS. 20F and G are graphs of normalized relative length and area of migrated cells in the collagen gel scaffold polymerized at pH 11.0 with concentration of 2.0 mg/mL. All graphs made by average of the value in 4 devices with n=8 (total 8 scaffolds) under one condition.
To evaluate the sensitivity of this assay, VEGF was applied to the condition channel 1, 2 or 3 days after cell seeding. […] For the normalized values, the measured data were normalized to their own baseline data at the initial time point (Eq. 1). Relative normalized values were assessed as the difference between the normalized data of the condition side and the control side. […]

[2] = Dextran diffusion from condition channel to cell channel through collagen gel scaffold, three-channel device; format: physicochemical; details: 40 kDa dextran; for time of initial diffusion from condition channel through scaffold to cell channel: 0.5 μg/mL, collagen 2.0 mg/mL polymerized at pH 7.4
Source text: Media exchange, dextran diffusion experiments and flow application. The filled media should be kept as droplets on inlets and outlets to avoid evaporation of the media. Aspirating an existing droplet and adding a new droplet of media on one side can generate micro flow due to capillary force to replace the old media in the channel with minimal shear stress on the cells. To apply mechanical angiogenic factors such as fluid shear stress or pressure gradient, fluidic circuits consisting of tubes and pumps can be connected to inlets and outlets of the device to apply precisely controlled flow. […] The diffusion profile was taken by fluorescence microscope (Nikon Instruments, NY) and analyzed by Matlab to get the intensity graph from images. […] Stable and linear gradient was achieved and maintained for several hours. […] The collagen scaffold used had 2.0 mg/mL concentration polymerized at pH 7.4.
Equilibrium was established after several hours and a linear concentration profile was maintained for 10 hours.

[3] = test system: U87MG cells; test: Microfluidic chemotaxis evaluation of U87MG cells with hEGF gradient; format: cell-based, human; details: 20 or 200 ng/mL hEGF in condition channel; collagen scaffold
[4] = collagen scaffolds polymerized at pH 11.0 (stiff gels)

## VEGF
[1]; VEGF added 3 days after cell seeding
  relative normalized length and area change of cell migration: did not
[1]; VEGF applied 1 day after cell seeding
  relative normalized length and area change of cell migration: induced cell migration
[1]; VEGF applied 2 days after cell seeding
  relative normalized length and area change of cell migration: induced cell migration
[1]; [4]
  relative normalized values of the area change: too small to be detected
  relative normalized values of the length change: significant differences of cell migration

## dextran
[2]
  time of initial diffusion from condition channel through scaffold to cell channel: 30 min
[2]; listed as Dextran
  time of initial diffusion from condition channel through scaffold to cell channel: ≤ 30 min
[2]; collagen gel scaffold, after equilibrium
  duration for which linear concentration profile was maintained: 10 h

## hEGF: human epidermal growth factor (NSDSECPLSHDGYCLHDGVCMYIEALDKYACNCVVGYIGERCQYRDLKWWELR; UniProt P01133 971-1023, looked up)
[3]
  migration speed of U87MG cells, condition side vs control side: higher than that of the control side
